Results published in ChEMBL document CHEMBL4507299, “Data for DCP probe PF-04554878” (2021).

Legend:
[1] = target: Tyrosine-protein kinase receptor Tie-1 (Homo sapiens) (UniProt P35590)
[2] = target: Casein kinase I isoform delta (Homo sapiens) (UniProt P48730)
[3] = target: Tyrosine-protein kinase receptor TYRO3 (Homo sapiens) (UniProt Q06418)
[4] = target: Ephrin type-B receptor 1 (Homo sapiens) (UniProt P54762)
[5] = target: Atypical kinase COQ8A, mitochondrial (Homo sapiens) (UniProt Q8NI60)
[6] = target: Insulin-like growth factor 1 receptor (Homo sapiens) (UniProt P08069)
[7] = target: Cyclin-dependent kinase 19 (Homo sapiens) (UniProt Q9BWU1)
[8] = target: LIM domain kinase 1 (Homo sapiens) (UniProt P53667)
[9] = tested on: Proto-oncogene tyrosine-protein kinase receptor Ret (Homo sapiens), P07949 [V804M]
[10] = target: Tyrosine-protein kinase JAK1 (Homo sapiens) (UniProt P23458)
[11] = target: Serine/threonine-protein kinase PknB (Mycobacterium tuberculosis) (UniProt P9WI81)
[12] = target: Rho-associated protein kinase 1 (Homo sapiens) (UniProt Q13464)
[13] = target: Serine/threonine-protein kinase WNK3 (Homo sapiens) (UniProt Q9BYP7)
Chain of Serine/threonine-protein kinase WNK3 (Homo sapiens) (Q9BYP7 whole entry): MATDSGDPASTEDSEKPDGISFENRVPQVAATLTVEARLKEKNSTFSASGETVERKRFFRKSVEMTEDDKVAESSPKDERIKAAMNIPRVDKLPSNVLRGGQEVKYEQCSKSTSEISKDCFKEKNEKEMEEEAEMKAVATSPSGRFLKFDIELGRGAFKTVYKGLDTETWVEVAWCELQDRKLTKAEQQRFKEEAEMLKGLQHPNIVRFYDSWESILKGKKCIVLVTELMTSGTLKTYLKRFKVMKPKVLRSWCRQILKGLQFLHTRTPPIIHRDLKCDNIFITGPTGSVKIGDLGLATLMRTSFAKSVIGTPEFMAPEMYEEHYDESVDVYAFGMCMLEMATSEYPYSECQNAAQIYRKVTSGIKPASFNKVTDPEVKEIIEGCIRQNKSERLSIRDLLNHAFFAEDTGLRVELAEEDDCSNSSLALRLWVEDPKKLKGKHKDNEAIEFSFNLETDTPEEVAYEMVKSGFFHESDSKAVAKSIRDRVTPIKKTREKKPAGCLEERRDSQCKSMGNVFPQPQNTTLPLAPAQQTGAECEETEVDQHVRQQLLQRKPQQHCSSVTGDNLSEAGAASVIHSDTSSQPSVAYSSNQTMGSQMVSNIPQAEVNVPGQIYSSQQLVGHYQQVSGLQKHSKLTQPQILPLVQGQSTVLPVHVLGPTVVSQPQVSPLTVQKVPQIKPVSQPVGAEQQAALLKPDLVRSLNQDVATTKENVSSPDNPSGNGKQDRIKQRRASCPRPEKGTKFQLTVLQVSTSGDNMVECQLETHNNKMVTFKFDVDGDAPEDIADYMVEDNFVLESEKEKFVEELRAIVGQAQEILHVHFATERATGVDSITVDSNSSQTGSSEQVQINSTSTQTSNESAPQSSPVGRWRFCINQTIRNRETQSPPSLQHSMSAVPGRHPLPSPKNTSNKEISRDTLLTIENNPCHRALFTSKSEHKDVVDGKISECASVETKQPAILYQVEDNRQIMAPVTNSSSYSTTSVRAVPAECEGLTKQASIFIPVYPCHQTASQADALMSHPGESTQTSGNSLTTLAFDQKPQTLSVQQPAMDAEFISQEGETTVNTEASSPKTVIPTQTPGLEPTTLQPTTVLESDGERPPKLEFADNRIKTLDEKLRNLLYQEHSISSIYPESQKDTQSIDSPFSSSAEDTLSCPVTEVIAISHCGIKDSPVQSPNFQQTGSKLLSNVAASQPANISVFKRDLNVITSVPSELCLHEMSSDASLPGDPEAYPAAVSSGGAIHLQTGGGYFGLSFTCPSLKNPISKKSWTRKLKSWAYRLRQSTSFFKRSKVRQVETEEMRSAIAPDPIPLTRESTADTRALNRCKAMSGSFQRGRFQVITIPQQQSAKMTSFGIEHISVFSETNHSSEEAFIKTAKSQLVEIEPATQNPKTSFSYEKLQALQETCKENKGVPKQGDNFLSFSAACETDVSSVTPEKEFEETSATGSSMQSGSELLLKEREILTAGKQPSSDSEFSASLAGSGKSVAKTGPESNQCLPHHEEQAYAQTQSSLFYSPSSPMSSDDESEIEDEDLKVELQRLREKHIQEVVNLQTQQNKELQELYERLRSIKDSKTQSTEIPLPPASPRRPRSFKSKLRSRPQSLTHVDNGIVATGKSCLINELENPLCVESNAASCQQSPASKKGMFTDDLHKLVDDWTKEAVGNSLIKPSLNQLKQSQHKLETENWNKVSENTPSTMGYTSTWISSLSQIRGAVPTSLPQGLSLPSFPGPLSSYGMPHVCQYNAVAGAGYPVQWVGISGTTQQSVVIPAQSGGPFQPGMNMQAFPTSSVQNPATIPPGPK

[14] = target: 5-hydroxytryptamine receptor 7 (Homo sapiens) (UniProt P34969); conditions: Compound concentration 10.0 uM
[15] = target: Calcium/calmodulin-dependent protein kinase type IV (Homo sapiens) (UniProt Q16566)
[16] = target: ALK tyrosine kinase receptor (Homo sapiens) (UniProt Q9UM73)
[17] = target: Mitogen-activated protein kinase kinase kinase 4 (Homo sapiens) (UniProt Q9Y6R4)
[18] = target: NUAK family SNF1-like kinase 1 (Homo sapiens) (UniProt O60285)
Chain of NUAK family SNF1-like kinase 1 (Homo sapiens) (O60285 whole entry): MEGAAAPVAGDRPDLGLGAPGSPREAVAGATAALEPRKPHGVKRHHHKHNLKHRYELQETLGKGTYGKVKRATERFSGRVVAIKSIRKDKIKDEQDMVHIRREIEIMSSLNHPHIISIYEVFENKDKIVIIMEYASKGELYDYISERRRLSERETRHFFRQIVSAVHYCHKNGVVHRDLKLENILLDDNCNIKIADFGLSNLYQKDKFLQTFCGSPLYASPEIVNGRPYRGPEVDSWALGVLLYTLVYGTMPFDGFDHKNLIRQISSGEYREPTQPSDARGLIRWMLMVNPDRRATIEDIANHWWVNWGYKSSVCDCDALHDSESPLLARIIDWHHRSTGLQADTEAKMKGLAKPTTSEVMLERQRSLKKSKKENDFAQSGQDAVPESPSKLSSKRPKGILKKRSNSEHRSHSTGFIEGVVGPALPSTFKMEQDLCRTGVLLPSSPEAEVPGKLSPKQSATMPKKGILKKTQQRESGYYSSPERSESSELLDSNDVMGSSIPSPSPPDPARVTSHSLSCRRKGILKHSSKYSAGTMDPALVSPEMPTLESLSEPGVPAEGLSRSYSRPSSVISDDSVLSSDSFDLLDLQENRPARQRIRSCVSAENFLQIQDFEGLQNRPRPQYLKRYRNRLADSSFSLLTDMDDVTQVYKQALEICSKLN

[19] = target: G protein-coupled receptor kinase 4 (Homo sapiens) (UniProt P32298)
[20] = target: T1, Serine/threonine-protein kinase 3 (Homo sapiens) (UniProt Q13188)
T1 sequence (whole entry): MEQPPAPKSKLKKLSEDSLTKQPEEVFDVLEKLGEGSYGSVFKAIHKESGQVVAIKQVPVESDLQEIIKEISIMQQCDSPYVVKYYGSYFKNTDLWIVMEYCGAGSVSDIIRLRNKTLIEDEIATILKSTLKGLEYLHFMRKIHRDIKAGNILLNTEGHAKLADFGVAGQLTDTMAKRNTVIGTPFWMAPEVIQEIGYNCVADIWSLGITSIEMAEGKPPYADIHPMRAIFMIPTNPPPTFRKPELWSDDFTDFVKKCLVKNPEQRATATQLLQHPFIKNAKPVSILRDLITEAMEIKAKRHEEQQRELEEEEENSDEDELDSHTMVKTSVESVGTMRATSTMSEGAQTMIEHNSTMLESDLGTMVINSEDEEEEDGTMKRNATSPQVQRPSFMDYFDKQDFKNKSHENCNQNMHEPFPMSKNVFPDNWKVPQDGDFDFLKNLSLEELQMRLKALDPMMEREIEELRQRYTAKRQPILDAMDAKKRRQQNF

[21] = tested on: Receptor-type tyrosine-protein kinase FLT3 (Homo sapiens), P36888 [UNDEFINED MUTATION]
[22] = target: Serine/threonine-protein kinase Nek3 (Homo sapiens) (UniProt P51956)
[23] = target: Serine/threonine-protein kinase 33 (Homo sapiens) (UniProt Q9BYT3)
[24] = target: Serine/threonine-protein kinase D2 (Homo sapiens) (UniProt Q9BZL6)
[25] = target: Megakaryocyte-associated tyrosine-protein kinase (Homo sapiens) (UniProt P42679)
[26] = target: Serine/threonine-protein kinase SIK1 (Homo sapiens) (UniProt P57059)
[27] = target: Serine/threonine-protein kinase LATS2 (Homo sapiens) (UniProt Q9NRM7)
Chain of Serine/threonine-protein kinase LATS2 (Homo sapiens) (Q9NRM7 whole entry): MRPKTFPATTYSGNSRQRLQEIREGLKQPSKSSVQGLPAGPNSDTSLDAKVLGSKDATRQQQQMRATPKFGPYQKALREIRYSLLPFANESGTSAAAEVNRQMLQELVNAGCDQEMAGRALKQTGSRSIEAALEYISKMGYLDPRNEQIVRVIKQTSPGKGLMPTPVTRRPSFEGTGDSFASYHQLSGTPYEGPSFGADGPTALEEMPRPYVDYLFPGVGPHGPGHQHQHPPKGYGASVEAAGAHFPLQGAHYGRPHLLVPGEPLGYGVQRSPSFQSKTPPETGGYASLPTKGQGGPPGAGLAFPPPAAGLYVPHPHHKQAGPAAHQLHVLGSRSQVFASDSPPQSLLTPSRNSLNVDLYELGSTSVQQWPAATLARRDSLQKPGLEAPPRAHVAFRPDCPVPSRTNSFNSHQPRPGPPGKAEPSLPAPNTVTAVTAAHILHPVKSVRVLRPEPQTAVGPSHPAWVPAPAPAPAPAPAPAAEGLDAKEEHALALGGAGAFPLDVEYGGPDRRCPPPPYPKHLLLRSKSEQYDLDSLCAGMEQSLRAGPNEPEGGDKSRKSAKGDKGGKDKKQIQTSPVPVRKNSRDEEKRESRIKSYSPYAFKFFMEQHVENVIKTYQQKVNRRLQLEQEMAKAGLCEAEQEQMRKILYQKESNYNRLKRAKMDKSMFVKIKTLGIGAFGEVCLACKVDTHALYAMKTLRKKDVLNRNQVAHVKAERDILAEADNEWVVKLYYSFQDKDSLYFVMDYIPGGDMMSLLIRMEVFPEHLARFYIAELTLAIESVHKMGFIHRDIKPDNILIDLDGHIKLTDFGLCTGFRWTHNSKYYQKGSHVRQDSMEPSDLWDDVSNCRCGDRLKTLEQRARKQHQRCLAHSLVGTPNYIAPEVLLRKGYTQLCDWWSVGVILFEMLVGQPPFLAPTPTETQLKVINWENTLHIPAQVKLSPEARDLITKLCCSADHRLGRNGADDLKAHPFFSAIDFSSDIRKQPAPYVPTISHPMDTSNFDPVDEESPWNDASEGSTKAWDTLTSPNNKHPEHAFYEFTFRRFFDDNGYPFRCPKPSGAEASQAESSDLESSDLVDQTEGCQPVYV

[28] = target: Serine/threonine-protein kinase DCLK3 (Homo sapiens) (UniProt Q9C098)
[29] = target: 5-hydroxytryptamine receptor 2A (Homo sapiens) (UniProt P28223); conditions: Compound concentration 10.0 uM
[30] = target: Mast/stem cell growth factor receptor Kit (Homo sapiens) (UniProt P10721)
[31] = target: 5'-AMP-activated protein kinase catalytic subunit alpha-2 (Homo sapiens) (UniProt P54646)
[32] = target: RAC-gamma serine/threonine-protein kinase (Homo sapiens) (UniProt Q9Y243)
[33] = target: Calcium/calmodulin-dependent protein kinase kinase 2 (Homo sapiens) (UniProt Q96RR4)
[34] = target: Ephrin type-B receptor 4 (Homo sapiens) (UniProt P54760)
[35] = tested on: Epidermal growth factor receptor (Homo sapiens), P00533 [L861Q]
[36] = target: Tyrosine-protein kinase Fer (Homo sapiens) (UniProt P16591)
[37] = target: Phosphatidylinositol 4,5-bisphosphate 3-kinase catalytic subunit delta isoform (Homo sapiens) (UniProt O00329)
[38] = target: Serine/threonine-protein kinase 32A (Homo sapiens) (UniProt Q8WU08)
[39] = Compound concentration 100.0 nM
[40] = Compound concentration 1000.0 nM

Chain of Casein kinase I isoform delta (Homo sapiens) (P48730 whole entry, looked up, canonical isoform): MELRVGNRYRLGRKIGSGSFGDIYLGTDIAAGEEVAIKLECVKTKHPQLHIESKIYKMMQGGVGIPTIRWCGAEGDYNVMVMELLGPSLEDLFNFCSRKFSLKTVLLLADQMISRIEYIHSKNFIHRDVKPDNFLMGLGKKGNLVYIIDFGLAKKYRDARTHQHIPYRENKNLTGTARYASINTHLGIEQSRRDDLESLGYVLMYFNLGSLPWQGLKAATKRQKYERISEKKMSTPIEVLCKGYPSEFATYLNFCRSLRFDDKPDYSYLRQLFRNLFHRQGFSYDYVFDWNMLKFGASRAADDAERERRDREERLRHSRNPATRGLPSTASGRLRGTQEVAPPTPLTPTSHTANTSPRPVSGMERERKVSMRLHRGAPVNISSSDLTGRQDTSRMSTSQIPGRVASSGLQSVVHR
Chain of Ephrin type-B receptor 1 (Homo sapiens) (P54762 whole entry): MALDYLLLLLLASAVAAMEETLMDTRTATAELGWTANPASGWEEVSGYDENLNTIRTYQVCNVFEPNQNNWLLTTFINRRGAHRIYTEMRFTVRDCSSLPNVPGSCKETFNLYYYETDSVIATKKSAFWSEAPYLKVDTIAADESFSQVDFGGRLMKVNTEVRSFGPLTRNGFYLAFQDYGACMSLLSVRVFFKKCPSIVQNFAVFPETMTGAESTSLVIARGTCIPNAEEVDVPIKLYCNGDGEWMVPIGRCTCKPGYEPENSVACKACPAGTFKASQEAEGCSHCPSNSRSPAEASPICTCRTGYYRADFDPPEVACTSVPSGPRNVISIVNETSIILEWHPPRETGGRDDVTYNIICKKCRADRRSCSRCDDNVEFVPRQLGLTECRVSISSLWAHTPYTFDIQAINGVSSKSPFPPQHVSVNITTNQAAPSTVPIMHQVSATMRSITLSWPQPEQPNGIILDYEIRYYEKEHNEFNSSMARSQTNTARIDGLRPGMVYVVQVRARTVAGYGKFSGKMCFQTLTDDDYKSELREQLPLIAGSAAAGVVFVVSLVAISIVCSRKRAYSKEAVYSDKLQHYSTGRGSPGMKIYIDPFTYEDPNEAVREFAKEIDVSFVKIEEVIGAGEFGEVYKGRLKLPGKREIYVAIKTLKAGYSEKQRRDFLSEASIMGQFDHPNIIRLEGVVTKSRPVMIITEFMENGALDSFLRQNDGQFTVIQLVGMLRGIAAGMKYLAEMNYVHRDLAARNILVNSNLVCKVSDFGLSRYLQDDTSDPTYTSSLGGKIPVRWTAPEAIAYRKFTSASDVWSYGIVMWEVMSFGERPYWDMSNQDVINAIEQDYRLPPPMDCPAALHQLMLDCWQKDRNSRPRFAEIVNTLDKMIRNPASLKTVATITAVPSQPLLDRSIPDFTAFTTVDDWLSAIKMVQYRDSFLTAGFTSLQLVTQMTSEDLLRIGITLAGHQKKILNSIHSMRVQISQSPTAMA

CNC(=O)c1ccc(Nc2ncc(C(F)(F)F)c(NCc3nccnc3N(C)S(C)(=O)=O)n2)cc1 [DEFACTINIB]
active: residual activity [1, 39] 47% | residual activity [9, 39] 30% | residual activity [10, 39] 28% | residual activity [18, 39] 31% | residual activity [21, 39] 14% | residual activity [25, 39] 37% | residual activity [32, 39] 36%
inactive: residual activity [2, 39] 98% | residual activity [3, 39] 100% | residual activity [4, 39] 87% | residual activity [5, 39] 98% | residual activity [6, 39] 84% | residual activity [7, 39] 100% | residual activity [8, 39] 100% | residual activity [11, 39] 69% | residual activity [12, 39] 100% | residual activity [13, 39] 100% | inhibition [14] 5.31% | residual activity [15, 39] 100% | residual activity [16, 39] 58% | residual activity [17, 39] 100% | residual activity [19, 39] 98% | residual activity [20, 39] 68% | residual activity [22, 39] 100% | residual activity [23, 39] 68% | residual activity [24, 39] 100% | residual activity [26, 39] 90% | residual activity [27, 39] 65% | residual activity [28, 39] 67% | inhibition [29] 0.93% | residual activity [30, 39] 100% | residual activity [31, 39] 100% | residual activity [33, 39] 68% | residual activity [34, 39] 94% | residual activity [35, 39] 100% | residual activity [36, 39] 83% | residual activity [37, 39] 90% | residual activity [38, 39] 71%

CN(c1ccnc(CNc2nc(Nc3ccc4c(c3)CC(=O)N4)ncc2C(F)(F)F)n1)S(C)(=O)=O [PF-00911705]
active: residual activity [1, 40] 17% | residual activity [9, 40] 31% | residual activity [12, 40] 49% | residual activity [18, 40] 21% | residual activity [19, 40] 10% | residual activity [20, 40] 46% | residual activity [21, 40] 0.7% | residual activity [23, 40] 15% | residual activity [27, 40] 42% | residual activity [28, 40] 43%
inactive: residual activity [2, 40] 100% | residual activity [3, 40] 99% | residual activity [4, 40] 99% | residual activity [5, 40] 79% | residual activity [6, 40] 100% | residual activity [7, 40] 84% | residual activity [8, 40] 97% | residual activity [10, 40] 94% | residual activity [11, 40] 80% | residual activity [13, 40] 79% | inhibition [14] -4.55% | residual activity [15, 40] 100% | residual activity [16, 40] 81% | residual activity [17, 40] 91% | residual activity [22, 40] 60% | residual activity [24, 40] 92% | residual activity [25, 40] 65% | residual activity [26, 40] 76% | inhibition [29] 4.75% | residual activity [30, 40] 52% | residual activity [31, 40] 87% | residual activity [32, 40] 100% | residual activity [33, 40] 69% | residual activity [34, 40] 96% | residual activity [35, 40] 70% | residual activity [36, 40] 78% | residual activity [37, 40] 77% | residual activity [38, 40] 72%
